Reference: patent US20160176961A1, “THROMBOPOIETIN RECEPTOR LIGANDS FOR NEUROPROTECTION” (MCW Research Foundation, Inc., priority 2011, published 2016)
Entries after “also recorded” stand apart in the source; their conditions may differ.

How the values were obtained:
[1] = compared with Tpo itself; literature (Blood 85:981; J interferon Cyto Res); cited from earlier work
[2] = tested on: Male Sprague Dawley rats; assay: left middle cerebral artery occlusion followed by reperfusion (focal stroke); type: in vivo, rat
Method: Male Sprague Dawley rats, 10 weeks of age (n=6/group) undergo 2-3 hours of left middle cerebral artery occlusion followed by 20-48 hours of reperfusion. Vehicle or thrombopoietin (0.03 to 1.00 μg/kg) is administered intravenously immediately after reperfusion. Brain infarct and swelling, neurologic deficits, matrix metalloproteinase-9 (MMP-9), tissue inhibitor of metalloproteinase-1 (TIMP-1), thrombopoietin and c-Mpl (thrombopoietin receptor) mRNA and protein, MMP-9 enzyme activity and protein expression, and the integrity of the blood-brain barrier are measured. Reperfusion of the left middle cerebral artery occlusion is expected to produce a large infarct and swelling after stroke.
Thrombopoietin is administered intravenously over the range 0.001-10 μg/kg. […] Stroke-induced increases in cortical MMP-9 mRNA, enzyme activity and protein expression, TIMP-1 mRNA, and Evans blue extravasation would be reduced by administration of thrombopoietin.

[3] = tested on: heart; settings: earlier work of the inventor, U.S. Pat. No. 7,879,318; cited from earlier work
[4] = rat MCA occlusion/reperfusion, i.v. thrombopoietin

| Compound | crossing of the blood brain barrier relative to Tpo [1] | most effective thrombopoietin dose ([2]; i.v., tested over the range 0.001-10 μg/kg, immediately or 2 hours after reperfusion) | stroke-induced increase in Evans blue extravasation (blood-brain barrier integrity) [2, 4] | stroke-induced increase in TIMP-1 mRNA [2, 4] | stroke-induced increases in cortical MMP-9 mRNA, enzyme activity and protein expression [2, 4] | neurologic deficits after stroke ([2]; rat MCA occlusion/reperfusion, i.v. immediately or 2 hours after reperfusion, vs untreated controls) | infarct size and swelling ([2]; rat, 2-3 h MCA occlusion, 20-48 h reperfusion, thrombopoietin i.v. immediately or 2 hours after reperfusion, vs untreated controls) | protection of the heart against deleterious effects of ischemia/reperfusion [3] |
| --- | --- | --- | --- | --- | --- | --- | --- | --- |
| CC1=NN(c2ccc(C)c(C)c2)C(=O)/C1=N\Nc1cccc(-c2cccc(C(=O)O)c2)c1O [eltrombopag] | cross the blood brain barrier more effectively than does Tpo itself | – | – | – | – | – | – | – |
| Thrombopoietin | – | 0.05 to 1.0 µg/kg | reduced | reduced | reduced | ameliorate | significantly reduces these indices of injury to the brain in a dose-dependent manner; also recorded: significantly reduce | protects the heart against various deleterious effects of ischemia/reperfusion |
| romiplostim | cross the blood brain barrier more effectively than does Tpo itself | – | – | – | – | – | – | – |
